Reference: patent publication US10323022B2, “Pyrrolidinyl urea, pyrrolidinyl thiourea and pyrrolidinyl guanidine compounds as TrkA kinase inhibitors” (Array BioPharma Inc., priority 2011, dated 2019)

Biological target: TrkA (Homo sapiens (Human), UniProt P04629)
Test: TrkA Omnia Assay
Format: biochemical
Details: averaged IC50; 20 nM enzyme, 500 μM ATP, 10 μM peptide substrate
Method in brief: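 Continuous fluorescent kinase read-out (ex 360 nm, em 485 nm) over 70 min, with initial rates fitted to 4- or 5-parameter logistic curves for IC50. Final conditions: 500 μM ATP, 10 μM Omnia Tyr Peptide #4, 20 nM TrkA, MOPS pH 7.5 buffer with MgCl2 and Triton X-100; enzyme and compound preincubated 10 min at ambient temperature.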

Chain of TrkA (P04629 33-796): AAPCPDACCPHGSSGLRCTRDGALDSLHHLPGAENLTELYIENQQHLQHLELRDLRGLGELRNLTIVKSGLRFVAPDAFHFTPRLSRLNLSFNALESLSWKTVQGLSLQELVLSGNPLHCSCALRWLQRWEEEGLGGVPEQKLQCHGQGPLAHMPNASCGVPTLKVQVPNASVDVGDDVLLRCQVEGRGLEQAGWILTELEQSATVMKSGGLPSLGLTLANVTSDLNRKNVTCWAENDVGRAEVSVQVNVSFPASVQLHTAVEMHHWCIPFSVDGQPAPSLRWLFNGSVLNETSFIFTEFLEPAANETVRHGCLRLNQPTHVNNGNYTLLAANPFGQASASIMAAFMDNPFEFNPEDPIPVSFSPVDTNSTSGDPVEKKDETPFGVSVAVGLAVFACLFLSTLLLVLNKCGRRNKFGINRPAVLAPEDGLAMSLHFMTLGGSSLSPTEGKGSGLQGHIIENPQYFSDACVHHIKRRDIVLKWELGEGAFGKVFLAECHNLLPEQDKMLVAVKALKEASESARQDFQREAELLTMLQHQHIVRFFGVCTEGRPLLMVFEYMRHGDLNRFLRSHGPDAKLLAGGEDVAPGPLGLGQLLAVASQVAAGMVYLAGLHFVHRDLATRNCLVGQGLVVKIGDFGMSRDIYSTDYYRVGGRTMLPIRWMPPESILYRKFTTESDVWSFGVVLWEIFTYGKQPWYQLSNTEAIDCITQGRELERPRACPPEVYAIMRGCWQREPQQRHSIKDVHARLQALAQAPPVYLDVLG

| SMILES | IC50 [µM] |
| --- | --- |
| CCOc1nn(-c2ccccc2)c(NC(=O)N[C@@H]2CN(c3ccnn3C)C[C@H]2c2ccccc2)c1C [Example 228, 1-(3-ethoxy-4-methyl-1-phenyl-1H-pyrazol-5-yl)-3-((3S,4R)-1-(1-methyl-1H-pyrazol-5-yl)-4-phenylpyrrolidin-3-yl)urea] | < 0.1 |
| CCOc1nn(-c2ccccc2)c(NC(=O)N[C@H]2CN(c3ccnn3C)C[C@@H]2c2ccccc2)c1C [Example 229, 1-(3-ethoxy-4-methyl-1-phenyl-1H-pyrazol-5-yl)-3-((3R,4S)-1-(1-methyl-1H-pyrazol-5-yl)-4-phenylpyrrolidin-3-yl)urea] | < 0.1 |
| CCOc1nn(-c2ccccc2)c(NC(=O)N[C@@H]2CN(c3ccnn3C)C[C@H]2c2cc(F)cc(F)c2)c1C [Example 230, 1-((3S,4R)-4-(3,5-difluorophenyl)-1-(1-methyl-1H-pyrazol-5-yl)pyrrolidin-3-yl)-3-(3-ethoxy-4-methyl-1-phenyl-1H-pyrazol-5-yl)urea] | 0.1 to 1 |
| CCOc1nn(-c2ccccc2)c(NC(=O)N[C@H]2CN(c3ccnn3C)C[C@@H]2c2cc(F)cc(F)c2)c1C [Example 231, 1-((3R,4S)-4-(3,5-difluorophenyl)-1-(1-methyl-1H-pyrazol-5-yl)pyrrolidin-3-yl)-3-(3-ethoxy-4-methyl-1-phenyl-1H-pyrazol-5-yl)urea] | < 0.1 |
| CCOc1nn(-c2ccccc2)c(NC(=O)N[C@@H]2CN(c3ccccc3)C[C@H]2c2ccc(F)c(F)c2)c1C [Example 232, 1-((3S,4R)-4-(3,4-difluorophenyl)-1-phenylpyrrolidin-3-yl)-3-(3-ethoxy-4-methyl-1-phenyl-1H-pyrazol-5-yl)urea] | 0.1 to 1 |
| CCOc1nn(-c2ccccc2)c(NC(=O)N[C@@H]2CN(c3ccccc3OC)C[C@H]2c2ccc(F)c(F)c2)c1C [Example 233, 1-((3S,4R)-4-(3,4-difluorophenyl)-1-(2-methoxyphenyl)pyrrolidin-3-yl)-3-(3-ethoxy-4-methyl-1-phenyl-1H-pyrazol-5-yl)urea] | 0.1 to 1 |
| CCOc1nn(-c2ccccc2)c(NC(=O)N[C@@H]2CN(c3ccccc3F)C[C@H]2c2ccccc2)c1C [Example 234, 1-(3-ethoxy-4-methyl-1-phenyl-1H-pyrazol-5-yl)-3-((3S,4R)-1-(2-fluorophenyl)-4-phenylpyrrolidin-3-yl)urea] | 0.1 to 1 |
| CCOc1nn(-c2ccccc2)c(NC(=O)N[C@@H]2CN(c3ccc(F)cc3)C[C@H]2c2ccccc2)c1C [Example 235, 1-(3-ethoxy-4-methyl-1-phenyl-1H-pyrazol-5-yl)-3-((3S,4R)-1-(4-fluorophenyl)-4-phenylpyrrolidin-3-yl)urea] | 0.1 to 1 |
| CCOc1nn(-c2ccccc2)c(NC(=O)N[C@@H]2CN(c3ccccc3C)C[C@H]2c2ccccc2)c1C [Example 236, 1-(3-ethoxy-4-methyl-1-phenyl-1H-pyrazol-5-yl)-3-((3S,4R)-1-(2-methylphenyl)-4-phenylpyrrolidin-3-yl)urea] | 0.1 to 1 |
| CCOc1nn(-c2ccccc2)c(NC(=O)N[C@@H]2CN(c3ccccc3OC)C[C@H]2c2ccccc2)c1C [Example 237, 1-(3-ethoxy-4-methyl-1-phenyl-1H-pyrazol-5-yl)-3-((3S,4R)-1-(2-methoxyphenyl)-4-phenylpyrrolidin-3-yl)urea] | 0.1 to 1 |
| CCOc1nn(-c2ccccc2)c(NC(=O)N[C@@H]2CN(c3ccccc3Cl)C[C@H]2c2ccccc2)c1C [Example 238, 1-(3-ethoxy-4-methyl-1-phenyl-1H-pyrazol-5-yl)-3-((3S,4R)-1-(2-chlorophenyl)-4-phenylpyrrolidin-3-yl)urea] | 0.1 to 1 |
| CCOc1nn(-c2ccccc2)c(NC(=O)N[C@@H]2CN(c3ccccc3OC(F)(F)F)C[C@H]2c2ccccc2)c1C [Example 239, 1-(3-ethoxy-4-methyl-1-phenyl-1H-pyrazol-5-yl)-3-((3S,4R)-4-phenyl-1-(2-(trifluoromethoxy)phenyl)pyrrolidin-3-yl)urea] | 0.1 to 1 |
| CCOc1nn(-c2ccccc2)c(NC(=O)N[C@@H]2CN(c3c(F)cccc3F)C[C@H]2c2ccccc2)c1C [Example 240, 1-((3S,4R)-1-(2,6-difluorophenyl)-4-phenylpyrrolidin-3-yl)-3-(3-ethoxy-4-methyl-1-phenyl-1H-pyrazol-5-yl)urea] | 0.1 to 1 |
| CCOc1nn(-c2ccccc2)c(NC(=O)N[C@@H]2CN(c3ccnc(OC)c3)C[C@H]2c2ccccc2)c1C [Example 241, 1-(3-ethoxy-4-methyl-1-phenyl-1H-pyrazol-5-yl)-3-((3S,4R)-1-(2-methoxypyridin-4-yl)-4-phenylpyrrolidin-3-yl)urea] | 0.1 to 1 |
| CCOc1nn(-c2ccccc2)c(NC(=O)N[C@@H]2CN(c3cccnc3OC)C[C@H]2c2ccccc2)c1C [Example 242, 1-(3-ethoxy-4-methyl-1-phenyl-1H-pyrazol-5-yl)-3-((3S,4R)-1-(2-methoxypyridin-3-yl)-4-phenylpyrrolidin-3-yl)urea] | < 0.1 |
| CCOc1ncccc1N1C[C@@H](NC(=O)Nc2c(C)c(OCC)nn2-c2ccccc2)[C@H](c2ccccc2)C1 [Example 243, 1-(3-ethoxy-4-methyl-1-phenyl-1H-pyrazol-5-yl)-3-((3S,4R)-1-(2-ethoxypyridin-3-yl)-4-phenylpyrrolidin-3-yl)urea] | < 0.1 |

The remaining lines, values ahead:

| IC50 [µM] | SMILES |
| --- | --- |
| 0.1 to 1 | COc1ncccc1N1C[C@@H](NC(=O)Nc2c(C)c(-c3ccccc3)nn2-c2ccccc2)[C@H](c2ccccc2)C1 [Example 245, 1-((3S,4R)-1-(2-methoxypyridin-3-yl)-4-phenylpyrrolidin-3-yl)-3-(4-methyl-1,3-diphenyl-1H-pyrazol-5-yl)urea] |
| < 0.1 | COc1ncccc1N1C[C@@H](NC(=O)Nc2c(Br)c(-c3cnn(C)c3)nn2-c2ccccc2)[C@H](c2ccccc2)C1 [Example 246, 1-(4-bromo-1′-methyl-1-phenyl-1H,1′H-[3,4′-bipyrazol]-5-yl)-3-((3S,4R)-1-(2-methoxypyridin-3-yl)-4-phenylpyrrolidin-3-yl)urea] |
| 0.1 to 1 | COc1ncccc1N1C[C@@H](NC(=O)Nc2c(Br)c(-c3ccccc3)nn2-c2ccccc2)[C@H](c2ccccc2)C1 [Example 247, 1-(4-bromo-1,3-diphenyl-1H-pyrazol-5-yl)-3-((3S,4R)-1-(2-methoxypyridin-3-yl)-4-phenylpyrrolidin-3-yl)urea] |
| < 0.1 | O=C(Nc1c2c(nn1-c1ccccc1)CCC2)N[C@@H]1CN(Cc2csnn2)C[C@H]1c1ccc(F)c(F)c1 [Example 248, 1-((3S,4R)-1-((1,2,3-thiadiazol-4-yl)methyl)-4-(3,4-difluorophenyl)pyrrolidin-3-yl)-3-(2-phenyl-2,4,5,6-tetrahydrocyclopenta[c]pyrazol-3-yl)urea] |
| < 0.1 | CCOc1nn(-c2ccccc2)c(NC(=O)N[C@@H]2CN(Cc3csnn3)C[C@H]2c2ccc(F)c(F)c2)c1C [Example 249, 1-((3S,4R)-1-((1,2,3-thiadiazol-4-yl)methyl)-4-(3,4-difluorophenyl)pyrrolidin-3-yl)-3-(3-ethoxy-4-methyl-1-phenyl-1H-pyrazol-5-yl)urea] |
| < 0.1 | Cc1c(OCC#N)nn(-c2ccccc2)c1NC(=O)N[C@@H]1CN(Cc2csnn2)C[C@H]1c1ccc(F)c(F)c1 [Example 250, 1-((3S,4R)-1-((1,2,3-thiadiazol-4-yl)methyl)-4-(3,4-difluorophenyl)pyrrolidin-3-yl)-3-(3-(cyanomethoxy)-4-methyl-1-phenyl-1H-pyrazol-5-yl)urea] |
| < 0.1 | Cc1c(-c2cnn(C)c2)nn(-c2ccccc2)c1NC(=O)N[C@@H]1CN(Cc2csnn2)C[C@H]1c1ccc(F)c(F)c1 [Example 251, 1-((3S,4R)-1-((1,2,3-thiadiazol-4-yl)methyl)-4-(3,4-difluorophenyl)pyrrolidin-3-yl)-3-(1′,4-dimethyl-1-phenyl-1H, 1′H-3,4′-bipyrazol-5-yl)urea] |
| < 0.1 | Cc1c(-c2cn(C)cn2)nn(-c2ccccc2)c1NC(=O)N[C@@H]1CN(Cc2csnn2)C[C@H]1c1ccc(F)c(F)c1 [Example 252, 1-((3S,4R)-1-((1,2,3-thiadiazol-4-yl)methyl)-4-(3,4-difluorophenyl)pyrrolidin-3-yl)-3-(4-methyl-3-(1-methyl-1H-imidazol-4-yl)-1-phenyl-1H-pyrazol-5-yl)urea] |
| 0.1 to 1 | Cn1cc(CN2C[C@@H](NC(=O)Nc3c4c(nn3-c3ccccc3)CCC4)[C@H](c3ccc(F)c(F)c3)C2)nn1 [Example 253, 1-((3S,4R)-4-(3,4-difluorophenyl)-1-((1-methyl-1H-1,2,3-triazol-4-yl)methyl)pyrrolidin-3-yl)-3-(2-phenyl-2,4,5,6-tetrahydrocyclopenta[c]pyrazol-3-yl)urea] |
| < 0.1 | CCOc1nn(-c2ccccc2)c(NC(=O)N[C@@H]2CN(C(COC)COC)C[C@H]2c2ccc(F)c(F)c2)c1C [Example 254, 1-((3S,4R)-4-(3,4-difluorophenyl)-1-(1,3-dimethoxypropan-2-yl)pyrrolidin-3-yl)-3-(3-ethoxy-4-methyl-1-phenyl-1H-pyrazol-5-yl)urea] |
| < 0.1 | CCOc1nn(-c2ccccc2)c(NC(=O)N[C@@H]2CN(C(C)COC)C[C@H]2c2ccc(F)c(F)c2)c1C (stereo partly drawn) [Example 255, 1-((3S,4R)-4-(3,4-difluorophenyl)-1-(1-methoxypropan-2-yl)pyrrolidin-3-yl)-3-(3-ethoxy-4-methyl-1-phenyl-1H-pyrazol-5-yl)urea] |
| < 0.1 | COCC(C(=O)OC)N1C[C@@H](NC(=O)Nc2c3c(nn2-c2ccccc2)CCC3)[C@H](c2ccc(F)c(F)c2)C1 (stereo partly drawn) [Example 259, methyl2-((3R,4S)-3-(3,4-difluorophenyl)-4-(3-(2-phenyl-2,4,5,6-tetrahydrocyclopenta[c]pyrazol-3-yl)ureido)pyrrolidin-1-yl)-3-methoxypropanoate] |
| < 0.1 | COCC(CO)N1C[C@@H](NC(=O)Nc2c3c(nn2-c2ccccc2)CCC3)[C@H](c2ccc(F)c(F)c2)C1 (stereo partly drawn) [Example 260, 1-((3S,4R)-4-(3,4-difluorophenyl)-1-(1-hydroxy-3-methoxypropan-2-yl)pyrrolidin-3-yl)-3-(2-phenyl-2,4,5,6-tetrahydrocyclopenta[c]pyrazol-3-yl)urea] |
